Blank lines part the entries; values can stand above or below the compound they belong to.
Columns and labels:
Format in all cases: physicochemical
[1] = Curcumin loading, release and post-release extraction of microparticle flakes
Procedure: (§1) Unless otherwise indicated, quantitation of drug products was carried out using HPLC methods. Calibration curves for drugs used herein (e.g., triamcinolone, triamcinolone hexacetonide, triamcinolone acetonide, paclitaxel, and curcumin) were prepared by injecting known concentrations of the drugs and measuring the area under the curve at each concentration. Analyses were carried out using an Agilent Zorbax Eclipse XDB-C18 column (150×4.6 mm i.d.) with a 12.5×4.6 mm guard column. The parameters for each drug are given below in Table 1
Crosslinked microparticles (15 mg) were loaded with 2.5 mg curcumin by overnight soaking in THF followed by the slow addition of 50 mL PBS containing 0.1% Tween. The microparticles were rinsed with THF to remove free curcumin and dried overnight.
It was observed that microparticles thus produced formed “flakes” that could not be re-suspended in THF or PBS buffer solution upon drying. […] The flakes could not be re-suspended in PBS buffer.
The release profile of curcumin of microparticle flakes produced by the method described above. The release profile is further quantified in Table 6, below.

[2] = Drug loading of crosslinked PVL-co-PAVL macroparticles (cylinders)
Procedure: as §1
A crosslinked macroparticle weighing about 15 mg comprising PVL-co-PAVL (MW=14760 g/mol, 13% AVL, 87% VL) was loaded with 2.5 mg paclitaxel by overnight soaking in THF followed by the slow addition of 50 mL PBS containing 0.1% Tween.

[3] = Preliminary drug release from crosslinked macroparticles
Procedure: as §1
The macroparticles were suspended in PBS (0.1% Tween) and the release rate was observed. The macroparticles released 5% of the paclitaxel after 3 hours at room temperature and about 5% after 24 hours at room temperature.

[4] = Release of triamcinolone hexacetonide from loaded particles in dissolution media
Procedure: as §1
25 mg of 75:25 (mPEG-PVL-PAVL:PVL-PAVL) particles were swollen overnight with 2 mg/mL triamcinolone hexacetonide in THF. 10 mL water including 0.1% tween was then added dropwise. The resulting mixture was centrifuged, the supernatant was collected, and the addition of 10 mL water including 0.1% tween was added dropwise again (2×; 30 mL total).
Without wishing to be bound by theory, this may be due to the fact that the triamcinolone hexacetonide crystallized on the surface of the particles. Without wishing to be bound by theory, this may be due to the relatively fast addition of water and the limited solubility of triamcinolone hexacetonide, which caused it to crystallize.
The loading efficiency, which included surface-bound drug or free drug in solution, was 67%. Upon suspending the particles in dissolution media, 20% of the triamcinolone hexacetonide was released within an hour, and 30% was released within 2 hours.

[5] = Loading of particles with triamcinolone hexacetonide (swelling in THF, slow addition of water); conditions: included surface-bound drug or free drug in solution
Procedure: In some embodiments, the loading procedure can affect the amount of drug that is absorbed into a particle of the present disclosure. For example, as set forth in Examples 7 and 8, 25 mg of 75:25 (mPEG-PVL-PAVL:PVL-PAVL) particles were swollen overnight with 2 mg/mL triamcinolone hexacetonide in THF. However, without wishing to be bound by theory, slow addition of greater volumes of water can facilitate greater uptake of triamcinolone hexacetonide by allowing the drug to preferentially partition into the particles. As set forth in Examples 7 and 8, slow addition of water enabled 67% loading efficiency. Additional parameters, in addition to the rate of water addition, that can affect the loading of a drug into a particle of the present disclosure are, for instance, the solvent in which the drug is dissolved, the time that the particles soak with the drug, and the volume of water used. Other parameters include the pH and the ionic strength of the solvent. For example, protic organic solvents such as methanol or ethanol can be used in place of water to facilitate loading of drug into a particle of the present disclosure.
Unless otherwise indicated, quantitation of drug products was carried out using HPLC methods. […]

[6] = about 15 mg PVL-co-PAVL macroparticle loaded with 2.5 mg paclitaxel
[7] = about 15 mg PVL-co-PAVL macroparticle, PBS (0.1% Tween), room temperature
[8] = particles of Example 8 suspended in dissolution media
[9] = triamcinolone hexacetonide, first cylinder (labelled with a circle)

curcumin recovered in post-release extraction of the flakes ([1]; after 48 hours release): 57% | curcumin released after 48 hours ([1]; from microparticle flakes): 51% | capacity ([2]; curcumin-loaded cylinder): 9.64% | amount of drug in the cylinder ([2]; curcumin-loaded cylinder dissolved in THF): 1.176 mg | curcumin released after about eight days ([3]; curcumin-loaded cylinder, FIG. 21): almost all
Compound: COc1cc(/C=C/C(=O)CC(=O)/C=C/c2ccc(O)c(OC)c2)ccc1O [curcumin]

loading capacity [2, 6]: 1.7 % w/w | loading efficiency [2, 6]: 30% | paclitaxel released after 3 hours [3, 7]: 5% | paclitaxel released after 24 hours [3, 7]: about 5%
Compound: CC(=O)O[C@H]1C(=O)[C@@]2(C)[C@H]([C@H](OC(=O)c3ccccc3)[C@]3(O)C[C@H](OC(=O)[C@H](O)[C@@H](NC(=O)c4ccccc4)c4ccccc4)C(C)=C1C3(C)C)[C@]1(OC(C)=O)CO[C@@H]1C[C@@H]2O [paclitaxel]

release profile ([4]; Example 7: 75:25 (mPEG-PVL-PAVL:PVL-PAVL) particles, relatively fast addition of water, surface-crystallized drug): relatively rapid release | triamcinolone hexacetonide released within 2 hours [4, 8]: 30% | triamcinolone hexacetonide released within an hour [4, 8]: 20% | loading efficiency [5]: 67% | amount of drug in the first cylinder [2, 9]: 1.118 mg | capacity of the first cylinder [2, 9]: 9.12% | capacity of the second cylinder ([2]; triamcinolone hexacetonide, second cylinder (labelled with an X)): 11.651% | amount of drug in the second cylinder ([2]; triamcinolone hexacetonide, second cylinder (labelled with an X), in mg): 0.901 | total drug released after about 6 days ([3]; both triamcinolone hexacetonide cylinders, FIG. 23): about 60%
Compound: CC(C)(C)CC(=O)OCC(=O)[C@@]12OC(C)(C)O[C@@H]1C[C@H]1[C@@H]3CCC4=CC(=O)C=C[C@]4(C)[C@@]3(F)[C@@H](O)C[C@@]12C [triamcinolone hexacetonide]

From US11426356B2, “Crosslinked particles” (Pendant Biosciences, Inc., priority 2015, dated 2022)
